Results reported in patent US7943338B2, “Autoimmune conditions and NADPH oxidase defects” (Arexis AB, priority 2002, dated 2011).
Entries after “also recorded” stand apart in the source; their conditions may differ.

What was measured:
DA rats = experiment: Treatment of hexadecane-induced arthritis with hexadecene; assay type: in vivo, Rat (Rattus norvegicus)
Experimental: Groups of DA rats were injected i.d. at the base of the tail as follows: • Hexadecane 200 μL day 0; • Hexadecene 200 μL day 0; • Hexadecene 200 μL day −5, Hexadecane 200 μL day 0; • Olive oil 200 μL day −5, Hexadecane 200 μL day 0; • Hexadecene 200 μL day +5, Hexadecane 200 μL day 0; and • Olive oil day 200 μL +5, Hexadecane 200 μL day 0.
The rats were scored as indicated above. Olive oil was used as a control.

[1] = Lymph node distribution of 14C-hexadecane after hexadecene at day -5; assay type: in vivo, Rat (Rattus norvegicus); settings: hexadecene 0, 50, 100 or 200 μL day -5; 14C-hexadecane day 0; day 10
Experimental: An experiment was performed to determine if oils compete for available space in the lymph nodes and if such a competition was the reason for the preventive effects of pre-treatment with hexadecene and undecane. At day −5, DA rats were injected with one of the following amounts of hexadecene: 0 μL, 50 μL, 100 μL, or 200 μL. At day 0, all rats were injected intradermally with 14C-hexadecane at the base of the tail. At day 10, the rats were sacrificed and the lymph nodes were collected and placed in PBS, homogenized, and frozen. 1 mL of the homogenate was then transferred to Ready Safe (Beckman) and analysed in a β-counter (Beckman).

[2] = in vivo; cited from earlier work

## hexadecene
DA rats; 200 μL i.d. day 0 alone, FIG. 12, p<0.05 hexadecane vs hexadecene
  arthritis-inducing capacity: does not
DA rats; hexadecene 200 μL i.d. day -5 or day +5, hexadecane day 0
  development of hexadecane induced arthritis: None of the rats treated with hexadecene developed arthritis; also recorded: None of the rats treated with hexadecene showed any symptoms of arthritis
DA rats; hexadecene day -5 and day +5, p<0.05
  difference in arthritis scores vs control rats: significant
[1]
  amount of hexadecane in draining lymph nodes: not affected
[2]
  arthritis induction: do not
